Laboratory results taken from the supplement of paper PMC4380931.

Assays:
Assay in all cases: apoptotic fraction of cells (caspase-3 NucView488 positive); higher = more apoptosis
MMACSF = tested on: MMACSF
Experimental: (§1)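 BRAF V600E/D melanoma cell lines were seeded in 96-well plates, treated in 4 replicates with seven doses (3.16 nM to 3.16 uM) of RAF/MEK inhibitors for 24, 48 or 72 h, and stained with Hoechst 33342 (nuclei) and DEVD-NucView488 caspase-3 substrate. Plates were imaged on an Operetta. Relative viability is the cell count normalised to a DMSO-treated control; apoptosis fraction is the fraction of NucView488-positive nuclei.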

SKMEL28 = tested on: SKMEL28
Experimental: as §1

RVH421 = tested on: RVH421
Experimental: as §1

LOXIMVI = tested on: LOXIMVI
Experimental: as §1

C32 = tested on: C32
Experimental: as §1

CCCS(=O)(=O)Nc1ccc(F)c(C(=O)c2c[nH]c3ncc(-c4ccc(Cl)cc4)cc23)c1F [Vemurafenib]
apoptotic fraction of cells
Settings	0.00316 µM	0.01 µM	0.0316 µM	0.1 µM	0.316 µM	1 µM	3.16 µM
C32, 24 h	0.0798	0.139	0.166	0.186	0.202	0.17	0.309
C32, 48 h	0.11	0.173	0.186	0.127	0.0971	0.407	0.862
C32, 72 h	0.0761	0.0907	0.0843	0.061	0.114	0.658	0.928
LOXIMVI, 24 h	0.0511	0.0524	0.0364	0.0578	0.0383	0.0551	0.0557
LOXIMVI, 48 h	0.103	0.0517	0.0505	0.0455	0.0414	0.0496	0.0897
LOXIMVI, 72 h	0.191	0.153	0.0537	0.0438	0.0484	0.074	0.129
MMACSF, 24 h	0.0413	0.0384	0.0409	0.0412	0.0459	0.0484	0.0553
MMACSF, 48 h	0.0481	0.0447	0.0414	0.0439	0.0499	0.0573	0.122
MMACSF, 72 h	0.0401	0.0441	0.0407	0.0382	0.0493	0.265	0.692
RVH421, 24 h	0.04937	0.0545	0.0463	0.0489	0.0609	0.0547	0.0664
RVH421, 48 h	0.0497	0.0508	0.0538	0.0604	0.0622	0.0737	0.0864
RVH421, 72 h	0.0342	0.0343	0.0341	0.0335	0.0444	0.0453	0.0682
SKMEL28, 48 h	0.0412	0.0316	0.0337	0.0359	0.0364	0.038	0.0538
SKMEL28, 72 h	0.0393	0.0398	0.0297	0.0272	0.0276	0.0399	0.147

Cc1ccc(NC(=O)c2cccc(C(C)(C)C#N)c2)cc1Nc1ccc2ncn(C)c(=O)c2c1 [AZ628]
apoptotic fraction of cells
Settings	0.00316 µM	0.01 µM	0.0316 µM	0.1 µM	0.316 µM	1 µM	3.16 µM
C32, 24 h	0.0886	0.128	0.177	0.226	0.28	0.338	0.24
C32, 48 h	0.0865	0.103	0.0851	0.213	0.509	0.847	0.9051
C32, 72 h	0.0829	0.0581	0.0379	0.301	0.676	0.886	0.941
LOXIMVI, 24 h	0.0535	0.0347	0.0365	0.0586	0.0296	0.0677	0.0554
LOXIMVI, 48 h	0.0814	0.0536	0.0416	0.0479	0.063	0.118	0.163
LOXIMVI, 72 h	0.139	0.104	0.0405	0.0836	0.117	0.211	0.497
MMACSF, 24 h	0.0452	0.0505	0.0425	0.0308	0.0456	0.0524	0.0606
MMACSF, 48 h	0.0483	0.0434	0.0445	0.0497	0.0653	0.159	0.25
MMACSF, 72 h	0.0431	0.0411	0.0335	0.083	0.226	0.465	0.62
RVH421, 24 h	0.0557	0.0513	0.04611	0.0493	0.0559	0.0518	0.0578
RVH421, 48 h	0.0503	0.053	0.0555	0.0583	0.0645	0.0779	0.108
RVH421, 72 h	0.0338	0.032	0.038	0.0442	0.0517	0.105	0.165
SKMEL28, 48 h	0.04	0.0326	0.032	0.0352	0.0404	0.063	0.09
SKMEL28, 72 h	0.0319	0.028	0.0262	0.0319	0.0526	0.107	0.142

CCCS(=O)(=O)Nc1ccc(F)c(C(=O)c2c[nH]c3ncc(Cl)cc23)c1F [PLX4720]
apoptotic fraction of cells
Settings	0.00316 µM	0.01 µM	0.0316 µM	0.1 µM	0.316 µM	1 µM	3.16 µM
C32, 24 h	0.0873	0.121	0.119	0.153	0.174	0.245	0.29
C32, 48 h	0.0967	0.159	0.158	0.105	0.143	0.465	0.784
C32, 72 h	0.0846	0.0849	0.0684	0.0354	0.215	0.619	0.813
LOXIMVI, 24 h	0.0547	0.0479	0.0396	0.0507	0.033	0.0507	0.0445
LOXIMVI, 48 h	0.111	0.0809	0.0585	0.0482	0.0482	0.0654	0.113
LOXIMVI, 72 h	0.211	0.144	0.074	0.0395	0.048	0.0542	0.159
MMACSF, 24 h	0.0449	0.0443	0.0397	0.0422	0.0417	0.0492	0.0464
MMACSF, 48 h	0.0462	0.0457	0.0434	0.0443	0.0469	0.0555	0.0933
MMACSF, 72 h	0.0394	0.0424	0.0386	0.0346	0.0549	0.218	0.534
RVH421, 24 h	0.0586	0.0457	0.0542	0.052	0.0578	0.0478	0.0574
RVH421, 48 h	0.0464	0.062	0.0512	0.05	0.058	0.0593	0.0831
RVH421, 72 h	0.0342	0.035	0.0338	0.0375	0.0466	0.051	0.0617
SKMEL28, 48 h	0.0324	0.0306	0.0349	0.035	0.0365	0.0401	0.0568
SKMEL28, 72 h	0.0401	0.0409	0.0321	0.0301	0.0373	0.0372	0.105

Cn1cnc2c(F)c(Nc3ccc(Br)cc3Cl)c(C(=O)NOCCO)cc21 [Selumetinib]
apoptotic fraction of cells
Settings	0.00316 µM	0.01 µM	0.0316 µM	0.1 µM	0.316 µM	1 µM	3.16 µM
C32, 24 h	0.0878	0.113	0.144	0.213	0.215	0.236	0.272
C32, 48 h	0.0773	0.0963	0.0636	0.107	0.262	0.598	0.83
C32, 72 h	0.103	0.0822	0.0406	0.108	0.403	0.759	0.862
LOXIMVI, 24 h	0.0508	0.0393	0.0293	0.0452	0.0393	0.0476	0.0428
LOXIMVI, 48 h	0.111	0.0778	0.0621	0.0589	0.0582	0.0523	0.0597
LOXIMVI, 72 h	0.161	0.0676	0.0426	0.0445	0.0604	0.0759	0.105
MMACSF, 24 h	0.0508	0.0478	0.0349	0.0436	0.0526	0.0569	0.0615
MMACSF, 48 h	0.0481	0.039	0.0469	0.0518	0.0667	0.14	0.232
MMACSF, 72 h	0.0392	0.0379	0.0318	0.0807	0.193	0.434	0.617
RVH421, 24 h	0.0531	0.0501	0.0442	0.0496	0.0515	0.0523	0.0612
RVH421, 48 h	0.0489	0.0601	0.0622	0.0642	0.0635	0.0671	0.0755
RVH421, 72 h	0.0328	0.0321	0.0318	0.0418	0.0438	0.0599	0.0977
SKMEL28, 48 h	0.0348	0.0333	0.0343	0.0355	0.0422	0.0573	0.0991
SKMEL28, 72 h	0.036	0.0338	0.0305	0.037	0.0563	0.111	0.214

CN(C)CCOc1ccc(-c2nc(-c3ccncc3)c(-c3ccc4c(c3)CC/C4=N\O)[nH]2)cc1
apoptotic fraction of cells
Settings	0.00316 µM	0.01 µM	0.0316 µM	0.1 µM	0.316 µM	1 µM	3.16 µM
C32, 24 h	0.0901	0.138	0.159	0.194	0.225	0.24	0.271
C32, 48 h	0.0832	0.121	0.0893	0.077	0.189	0.38	0.524
C32, 72 h	0.0657	0.0532	0.0299	0.0807	0.274	0.474	0.542
LOXIMVI, 24 h	0.0512	0.0389	0.0361	0.0658	0.0417	0.0511	0.0461
LOXIMVI, 48 h	0.143	0.0806	0.0671	0.0471	0.0374	0.0404	0.0453
LOXIMVI, 72 h	0.253	0.188	0.135	0.0607	0.0478	0.0458	0.0628
MMACSF, 24 h	0.0448	0.0421	0.0446	0.0491	0.0475	0.048	0.0414
MMACSF, 48 h	0.0482	0.0408	0.041	0.0486	0.0567	0.0889	0.0951
MMACSF, 72 h	0.0417	0.0427	0.0345	0.0358	0.0666	0.155	0.224
RVH421, 24 h	0.0543	0.0588	0.0478	0.0495	0.0536	0.062	0.0619
RVH421, 48 h	0.05	0.0534	0.0615	0.0578	0.0567	0.0708	0.0883
RVH421, 72 h	0.0342	0.0346	0.0361	0.044	0.0408	0.0371	0.033
SKMEL28, 48 h	0.0386	0.034	0.0305	0.0338	0.042	0.0432	0.0466
SKMEL28, 72 h	0.0377	0.0332	0.0271	0.0305	0.0316	0.0381	0.259
